In patent US9758529B2, “Fused dihydro-4H-pyrazolo[5,1-C][1,4]oxazinyl compounds and analogs for treating CNS disorders” (Sunovion Pharmaceuticals Inc., priority 2015, dated 2017):

Test system: mice
Test: Neuropharmacological Assay (SmartCube)
Assay type: in vivo
Conditions: i.p. 15 min before behavioral test; 3 doses, most efficacious dose(s) presented

CCNCC1OCCCn2nc3ccccc3c21.Cl (stereo not drawn) [Compound 57, N-((4,5-dihydro-1H,3H-[1,4]oxazepino[4,3-b]indazol-1-yl)methyl)ethanaminium chloride]
AD: ADHD (probability of class match): + (LOQ≦ + <5%)
AG: analgesic (probability of class match): + (LOQ≦ + <5%)
AX: anxiolytic (probability of class match): + (LOQ≦ + <5%)
CE: cognitive enhancer (probability of class match): + (LOQ≦ + <5%)
DP: anti-depressant (probability of class match): + (LOQ≦ + <5%)
HA: hallucinogen (probability of class match): + (LOQ≦ + <5%)
MS: mood stabilizer (probability of class match): + (LOQ≦ + <5%)
PS: anti-psychotic (probability of class match): + (LOQ≦ + <5%)
SD: sedative hypnotic (probability of class match): + (LOQ≦ + <5%)
UN: uncharacterized CNS activity (probability of class match): + (LOQ≦ + <5%)
XG: anxiogenic (probability of class match): + (LOQ≦ + <5%)

CNCC1OCCn2nc3ccsc3c21.Cl (stereo not drawn) [Compound 58, 1-(6,7-dihydro-9H-thieno[3′,2′:3,4]pyrazolo[5,1-c][1,4]oxazin-9-yl)-N-methylmethanaminium chloride]
AD: ADHD (probability of class match): ++ (5%≦ ++ <25%)
AG: analgesic (probability of class match): + (LOQ≦ + <5%)
AX: anxiolytic (probability of class match): ++ (5%≦ ++ <25%)
CE: cognitive enhancer (probability of class match): + (LOQ≦ + <5%)
DP: anti-depressant (probability of class match): ++++ (50%≦ ++++)
HA: hallucinogen (probability of class match): ++ (5%≦ ++ <25%)
MS: mood stabilizer (probability of class match): + (LOQ≦ + <5%)
PS: anti-psychotic (probability of class match): + (LOQ≦ + <5%)
SD: sedative hypnotic (probability of class match): ++ (5%≦ ++ <25%)
UN: uncharacterized CNS activity (probability of class match): + (LOQ≦ + <5%)
XG: anxiogenic (probability of class match): + (LOQ≦ + <5%)

CN(C)CC1OCCn2nc3ccsc3c21.Cl (stereo not drawn) [Compound 59, 1-(6,7-dihydro-9H-thieno[3′,2′:3,4]pyrazolo[5,1-c][1,4]oxazin-9-yl)-N,N-dimethylmethanaminium chloride]
AD: ADHD (probability of class match): + (LOQ≦ + <5%)
AG: analgesic (probability of class match): ++ (5%≦ ++ <25%)
AX: anxiolytic (probability of class match): ++ (5%≦ ++ <25%)
CE: cognitive enhancer (probability of class match): ++ (5%≦ ++ <25%)
DP: anti-depressant (probability of class match): ++ (5%≦ ++ <25%)
HA: hallucinogen (probability of class match): + (LOQ≦ + <5%)
MS: mood stabilizer (probability of class match): + (LOQ≦ + <5%)
PS: anti-psychotic (probability of class match): ++ (5%≦ ++ <25%)
SD: sedative hypnotic (probability of class match): + (LOQ≦ + <5%)
UN: uncharacterized CNS activity (probability of class match): +++ (25%≦ +++ <50%)
XG: anxiogenic (probability of class match): + (LOQ≦ + <5%)

Cl.NCC1OCCn2nc3ccsc3c21 (stereo not drawn) [Compound 60, (6,7-dihydro-9H-thieno[3′,2′:3,4]pyrazolo[5,1-c][1,4]oxazin-9-yl)methanaminium chloride]
AD: ADHD (probability of class match): ++ (5%≦ ++ <25%)
AG: analgesic (probability of class match): + (LOQ≦ + <5%)
AX: anxiolytic (probability of class match): +++ (25%≦ +++ <50%)
CE: cognitive enhancer (probability of class match): + (LOQ≦ + <5%)
DP: anti-depressant (probability of class match): ++ (5%≦ ++ <25%)
HA: hallucinogen (probability of class match): + (LOQ≦ + <5%)
MS: mood stabilizer (probability of class match): + (LOQ≦ + <5%)
PS: anti-psychotic (probability of class match): + (LOQ≦ + <5%)
SD: sedative hypnotic (probability of class match): ++ (5%≦ ++ <25%)
UN: uncharacterized CNS activity (probability of class match): + (LOQ≦ + <5%)
XG: anxiogenic (probability of class match): + (LOQ≦ + <5%)

CNCC1OCCn2nc3cnccc3c21.Cl.Cl (stereo not drawn) [Compound 61, 1-((methylammonio)methyl)-3,4-dihydro-1H-pyrido[3′,4′:3,4]pyrazolo[5,1-c][1,4]oxazin-8-ium chloride]
AD: ADHD (probability of class match): ++ (5%≦ ++ <25%)
AG: analgesic (probability of class match): + (LOQ≦ + <5%)
AX: anxiolytic (probability of class match): + (LOQ≦ + <5%)
CE: cognitive enhancer (probability of class match): + (LOQ≦ + <5%)
DP: anti-depressant (probability of class match): ++++ (50%≦ ++++)
HA: hallucinogen (probability of class match): ++ (5%≦ ++ <25%)
MS: mood stabilizer (probability of class match): + (LOQ≦ + <5%)
PS: anti-psychotic (probability of class match): + (LOQ≦ + <5%)
SD: sedative hypnotic (probability of class match): + (LOQ≦ + <5%)
UN: uncharacterized CNS activity (probability of class match): ++ (5%≦ ++ <25%)
XG: anxiogenic (probability of class match): + (LOQ≦ + <5%)

CN(C)CC1OCCn2nc3cnccc3c21.Cl.Cl (stereo not drawn) [Compound 62, 1-((dimethylammonio)methyl)-3,4-dihydro-1H-pyrido[3′,4′:3,4]pyrazolo[5,1-c][1,4]oxazin-8-ium chloride]
AD: ADHD (probability of class match): + (LOQ≦ + <5%)
AG: analgesic (probability of class match): + (LOQ≦ + <5%)
AX: anxiolytic (probability of class match): ++ (5%≦ ++ <25%)
CE: cognitive enhancer (probability of class match): + (LOQ≦ + <5%)
DP: anti-depressant (probability of class match): + (LOQ≦ + <5%)
HA: hallucinogen (probability of class match): + (LOQ≦ + <5%)
MS: mood stabilizer (probability of class match): + (LOQ≦ + <5%)
PS: anti-psychotic (probability of class match): + (LOQ≦ + <5%)
SD: sedative hypnotic (probability of class match): + (LOQ≦ + <5%)
UN: uncharacterized CNS activity (probability of class match): + (LOQ≦ + <5%)
XG: anxiogenic (probability of class match): + (LOQ≦ + <5%)

c1ccc2c3n(nc2c1)CCOC3CN1CC1 (stereo not drawn) [Compound 63, 1-(aziridin-1-ylmethyl)-3,4-dihydro-1H-[1,4]oxazino[4,3-b]indazole]
AD: ADHD (probability of class match): + (LOQ≦ + <5%)
AG: analgesic (probability of class match): +++ (25%≦ +++ <50%)
AX: anxiolytic (probability of class match): + (LOQ≦ + <5%)
CE: cognitive enhancer (probability of class match): + (LOQ≦ + <5%)
DP: anti-depressant (probability of class match): ++ (5%≦ ++ <25%)
HA: hallucinogen (probability of class match): + (LOQ≦ + <5%)
MS: mood stabilizer (probability of class match): + (LOQ≦ + <5%)
PS: anti-psychotic (probability of class match): + (LOQ≦ + <5%)
SD: sedative hypnotic (probability of class match): ++ (5%≦ ++ <25%)
UN: uncharacterized CNS activity (probability of class match): + (LOQ≦ + <5%)
XG: anxiogenic (probability of class match): + (LOQ≦ + <5%)

c1ccc2c3n(nc2c1)CCOC3[C@@H]1CCN1 (stereo partly drawn) [Compound 64, (2S)-2-(3,4-dihydro-1H-[1,4]oxazino[4,3-b]indazol-1-yl)azetidin-1-ium chloride]
AD: ADHD (probability of class match): ++++ (50%≦ ++++)
AG: analgesic (probability of class match): ++ (5%≦ ++ <25%)
AX: anxiolytic (probability of class match): ++ (5%≦ ++ <25%)
CE: cognitive enhancer (probability of class match): + (LOQ≦ + <5%)
DP: anti-depressant (probability of class match): ++ (5%≦ ++ <25%)
HA: hallucinogen (probability of class match): + (LOQ≦ + <5%)
MS: mood stabilizer (probability of class match): + (LOQ≦ + <5%)
PS: anti-psychotic (probability of class match): + (LOQ≦ + <5%)
SD: sedative hypnotic (probability of class match): + (LOQ≦ + <5%)
UN: uncharacterized CNS activity (probability of class match): +++ (25%≦ +++ <50%)
XG: anxiogenic (probability of class match): + (LOQ≦ + <5%)

CN1CC[C@H]1C1OCCn2nc3ccccc3c21 (stereo partly drawn) [Compound 65, ((2S)-2-(3,4-dihydro-1H-[1,4]oxazino[4,3-b]indazol-1-yl)-1-methylazetidin-1-ium chloride]
AD: ADHD (probability of class match): + (LOQ≦ + <5%)
AG: analgesic (probability of class match): +++ (25%≦ +++ <50%)
AX: anxiolytic (probability of class match): ++ (5%≦ ++ <25%)
CE: cognitive enhancer (probability of class match): ++ (5%≦ ++ <25%)
DP: anti-depressant (probability of class match): ++ (5%≦ ++ <25%)
HA: hallucinogen (probability of class match): + (LOQ≦ + <5%)
MS: mood stabilizer (probability of class match): + (LOQ≦ + <5%)
PS: anti-psychotic (probability of class match): + (LOQ≦ + <5%)
SD: sedative hypnotic (probability of class match): ++ (5%≦ ++ <25%)
UN: uncharacterized CNS activity (probability of class match): + (LOQ≦ + <5%)
XG: anxiogenic (probability of class match): ++ (5%≦ ++ <25%)

c1ccc2c3n(nc2c1)CCOC3C1CNC1 (stereo not drawn) [Compound 66, 3-(3,4-dihydro-1H-[1,4]oxazino[4,3-b]indazol-1-yl)azetidin-1-ium chloride]
AD: ADHD (probability of class match): + (LOQ≦ + <5%)
AG: analgesic (probability of class match): ++ (5%≦ ++ <25%)
AX: anxiolytic (probability of class match): ++ (5%≦ ++ <25%)
CE: cognitive enhancer (probability of class match): + (LOQ≦ + <5%)
DP: anti-depressant (probability of class match): ++ (5%≦ ++ <25%)
HA: hallucinogen (probability of class match): + (LOQ≦ + <5%)
MS: mood stabilizer (probability of class match): + (LOQ≦ + <5%)
PS: anti-psychotic (probability of class match): + (LOQ≦ + <5%)
SD: sedative hypnotic (probability of class match): + (LOQ≦ + <5%)
UN: uncharacterized CNS activity (probability of class match): + (LOQ≦ + <5%)
XG: anxiogenic (probability of class match): + (LOQ≦ + <5%)

CN1CC(C2OCCn3nc4ccccc4c32)C1.Cl (stereo not drawn) [Compound 67, 3-(3,4-dihydro-1H-[1,4]oxazino[4,3-b]indazol-1-yl)-1-methylazetidin-1-ium chloride]
AD: ADHD (probability of class match): + (LOQ≦ + <5%)
AG: analgesic (probability of class match): + (LOQ≦ + <5%)
AX: anxiolytic (probability of class match): ++ (5%≦ ++ <25%)
CE: cognitive enhancer (probability of class match): + (LOQ≦ + <5%)
DP: anti-depressant (probability of class match): ++ (5%≦ ++ <25%)
HA: hallucinogen (probability of class match): + (LOQ≦ + <5%)
MS: mood stabilizer (probability of class match): + (LOQ≦ + <5%)
PS: anti-psychotic (probability of class match): + (LOQ≦ + <5%)
SD: sedative hypnotic (probability of class match): + (LOQ≦ + <5%)
UN: uncharacterized CNS activity (probability of class match): + (LOQ≦ + <5%)
XG: anxiogenic (probability of class match): + (LOQ≦ + <5%)

CNC[C@@H]1OCCn2nc3ccsc3c21 [Compound 68, (S)-1-(6,7-dihydro-9H-thieno[3′,2′:3,4]pyrazolo[5,1-c][1,4]oxazin-9-yl)-N-methylmethanamine]
AD: ADHD (probability of class match): ++ (5%≦ ++ <25%)
AG: analgesic (probability of class match): ++ (5%≦ ++ <25%)
AX: anxiolytic (probability of class match): ++ (5%≦ ++ <25%)
CE: cognitive enhancer (probability of class match): + (LOQ≦ + <5%)
DP: anti-depressant (probability of class match): ++++ (50%≦ ++++)
HA: hallucinogen (probability of class match): ++++ (50%≦ ++++)
MS: mood stabilizer (probability of class match): + (LOQ≦ + <5%)
PS: anti-psychotic (probability of class match): + (LOQ≦ + <5%)
SD: sedative hypnotic (probability of class match): ++ (5%≦ ++ <25%)
UN: uncharacterized CNS activity (probability of class match): ++ (5%≦ ++ <25%)
XG: anxiogenic (probability of class match): + (LOQ≦ + <5%)
